Test: xn = mol fraction of the nth substance listed
Settings: 100 kPa, x2 = 0

CCO + CCCC[n+]1ccn(C)c1.O=S(=O)([N-]S(=O)(=O)C(F)(F)F)C(F)(F)F
Settings | viscosity [mPa·s]
293 K | 1.19
293.3 K | 1.18
293.61 K | 1.18
293.91 K | 1.17
294.21 K | 1.17
294.52 K | 1.16
294.82 K | 1.16
295.12 K | 1.15
295.42 K | 1.15
296.03 K | 1.14
296.33 K | 1.13
296.64 K | 1.13
297.24 K | 1.12
298.45 K | 1.09
298.76 K | 1.09
299.06 K | 1.08
299.36 K | 1.08
299.67 K | 1.07
299.97 K | 1.07
300.27 K | 1.06
300.58 K | 1.06
300.88 K | 1.05
301.18 K | 1.05
301.79 K | 1.04
302.09 K | 1.03
302.39 K | 1.03
303 K | 1.02
303.61 K | 1.01
303.91 K | 1
304.52 K | 0.99
304.82 K | 0.99
305.12 K | 0.98
305.42 K | 0.98
305.73 K | 0.97
306.33 K | 0.96
306.64 K | 0.96
306.94 K | 0.95
307.24 K | 0.95
307.55 K | 0.94
307.85 K | 0.94
308.15 K | 0.93
308.45 K | 0.93
308.76 K | 0.92
309.06 K | 0.92
309.36 K | 0.91
309.97 K | 0.9
310.27 K | 0.9
310.88 K | 0.89
311.18 K | 0.88
311.48 K | 0.88
311.79 K | 0.87
312.09 K | 0.87
312.39 K | 0.86
313.91 K | 0.84
314.21 K | 0.84
314.52 K | 0.83
314.82 K | 0.83
315.12 K | 0.82
315.42 K | 0.82
315.73 K | 0.81
316.03 K | 0.81
316.64 K | 0.8
316.94 K | 0.8
317.24 K | 0.79
317.55 K | 0.79
317.85 K | 0.78
318.15 K | 0.78
318.76 K | 0.77
319.06 K | 0.77
319.97 K | 0.75
320.27 K | 0.75
320.58 K | 0.74
321.18 K | 0.73
321.79 K | 0.73
322.09 K | 0.72
322.39 K | 0.72
322.7 K | 0.71
323 K | 0.71

Source: a compilation of properties of binary mixtures (doi:10.1016/j.molliq.2018.02.064)
